The compounds below were run on SHI-1 (assay: cell viability (% survival relative to DMSO control, bortezomib = 0%); higher = less cytotoxic). Conditions: 10 nM; 72 h.
Outline: (§1)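 Seeding density for each of the 10 AML and 5 CML cell lines was titrated to the linear growth range. Cells went into 384-well plates pre-printed in duplicate with compounds at 1, 10, 100, 1000 or 10000 nM and were held for 72 h at 37 °C with 5% CO2. CellTiter-Glo luminescence then provided the readout. Percent survival is expressed relative to vehicle at 100% and a 10 µM positive control at 0%, averaged over duplicates.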

Row | Compound | cell viability
1 | OCCN1C[C@H](O)[C@@H](O)[C@H](O)[C@H]1CO [Miglitol] | 109%
2 | CCCCCCCCCCCCC/C=C/[C@@H](O)[C@H](CO)N(C)C [N,N-Dimethylsphingosine] | 97.8%
3 | CCCCCCCNC=O [N-Heptyl-Formamide] | 104%

Same assay, conditions: 100 nM; 72 h

Row | Compound | cell viability
4 | O=C(Oc1ccc([N+](=O)[O-])cc1)N1CCC(C(O)(c2ccc3c(c2)OCO3)c2ccc3c(c2)OCO3)CC1 [JZL184] | 129%
5 | O=C1N[C@@H]2[C@@H](O)[C@@H](O)[C@H](O)[C@@H](CO)N2C1=O [Kifunensine] | 105%
6 | CC(C)(CCCCCCCCCCC(C)(C)CC(=O)O)CC(=O)O [MEDICA 16] | 102%
7 | Cc1nnc(-c2ccc(N3CCC(Oc4ccccc4C(F)(F)F)CC3)nn2)s1 [MF-438] | 102%
8 | CC(C)c1ccc2c(c1)c(SC(C)(C)C)c(CC(C)(C)C(=O)O)n2Cc1ccc(Cl)cc1 [MK-886] | 104%
9 | O=C(CCl)N(CCCNC(=O)C(F)(F)F)c1ccc([N+](=O)[O-])cc1 [ML175] | 85.1%
10 | CN(C)C(=N)NC(=N)N [Metformin] | 104%
11 | Cl.OC[C@H]1NC[C@H](O)[C@@H](O)[C@H]1O [Migalastat] | 109%
12 | OCCN1C[C@H](O)[C@@H](O)[C@H](O)[C@H]1CO [Miglitol] | 105%
13 | CCCCCCCCCCCCC/C=C/[C@@H](O)[C@H](CO)N(C)C [N,N-Dimethylsphingosine] | 104%
14 | CCCCCCCNC=O [N-Heptyl-Formamide] | 101%

Same assay, conditions: 1000 nM; 72 h

Row | Compound | cell viability
15 | O=C(Oc1ccc([N+](=O)[O-])cc1)N1CCC(C(O)(c2ccc3c(c2)OCO3)c2ccc3c(c2)OCO3)CC1 [JZL184] | 103%
16 | O=C1N[C@@H]2[C@@H](O)[C@@H](O)[C@H](O)[C@@H](CO)N2C1=O [Kifunensine] | 107%
17 | CC(C)(CCCCCCCCCCC(C)(C)CC(=O)O)CC(=O)O [MEDICA 16] | 98.2%
18 | Cc1nnc(-c2ccc(N3CCC(Oc4ccccc4C(F)(F)F)CC3)nn2)s1 [MF-438] | 113%
19 | CC(C)c1ccc2c(c1)c(SC(C)(C)C)c(CC(C)(C)C(=O)O)n2Cc1ccc(Cl)cc1 [MK-886] | 93.2%
20 | O=C(CCl)N(CCCNC(=O)C(F)(F)F)c1ccc([N+](=O)[O-])cc1 [ML175] | 107%
21 | CN(C)C(=N)NC(=N)N [Metformin] | 106%
22 | Cl.OC[C@H]1NC[C@H](O)[C@@H](O)[C@H]1O [Migalastat] | 102%
23 | OCCN1C[C@H](O)[C@@H](O)[C@H](O)[C@H]1CO [Miglitol] | 92.8%
24 | CCCCCCCCCCCCC/C=C/[C@@H](O)[C@H](CO)N(C)C [N,N-Dimethylsphingosine] | 97.8%
25 | CCCCCCCNC=O [N-Heptyl-Formamide] | 114%

Same assay, conditions: 10000 nM; 72 h

Row | Compound | cell viability
26 | O=C(Oc1ccc([N+](=O)[O-])cc1)N1CCC(C(O)(c2ccc3c(c2)OCO3)c2ccc3c(c2)OCO3)CC1 [JZL184] | 90.7%
27 | O=C1N[C@@H]2[C@@H](O)[C@@H](O)[C@H](O)[C@@H](CO)N2C1=O [Kifunensine] | 136%
28 | CC(C)(CCCCCCCCCCC(C)(C)CC(=O)O)CC(=O)O [MEDICA 16] | 90.7%
29 | Cc1nnc(-c2ccc(N3CCC(Oc4ccccc4C(F)(F)F)CC3)nn2)s1 [MF-438] | 80.9%
30 | CC(C)c1ccc2c(c1)c(SC(C)(C)C)c(CC(C)(C)C(=O)O)n2Cc1ccc(Cl)cc1 [MK-886] | 98.3%
31 | O=C(CCl)N(CCCNC(=O)C(F)(F)F)c1ccc([N+](=O)[O-])cc1 [ML175] | -0.834%
32 | CN(C)C(=N)NC(=N)N [Metformin] | 93.9%
33 | Cl.OC[C@H]1NC[C@H](O)[C@@H](O)[C@H]1O [Migalastat] | 107%
34 | OCCN1C[C@H](O)[C@@H](O)[C@H](O)[C@H]1CO [Miglitol] | 103%
35 | CCCCCCCCCCCCC/C=C/[C@@H](O)[C@H](CO)N(C)C [N,N-Dimethylsphingosine] | 83.8%
36 | CCCCCCCNC=O [N-Heptyl-Formamide] | 97.1%

What follows are compounds tested on K-562 in the same assay as above. Conditions: 1 nM; 72 h.
Outline: as §1

Row | Compound | cell viability
37 | O=C(Oc1ccc([N+](=O)[O-])cc1)N1CCC(C(O)(c2ccc3c(c2)OCO3)c2ccc3c(c2)OCO3)CC1 [JZL184] | 92.8%
38 | O=C1N[C@@H]2[C@@H](O)[C@@H](O)[C@H](O)[C@@H](CO)N2C1=O [Kifunensine] | 93.2%
39 | CC(C)(CCCCCCCCCCC(C)(C)CC(=O)O)CC(=O)O [MEDICA 16] | 114%
40 | Cc1nnc(-c2ccc(N3CCC(Oc4ccccc4C(F)(F)F)CC3)nn2)s1 [MF-438] | 97%
41 | CC(C)c1ccc2c(c1)c(SC(C)(C)C)c(CC(C)(C)C(=O)O)n2Cc1ccc(Cl)cc1 [MK-886] | 109%
42 | O=C(CCl)N(CCCNC(=O)C(F)(F)F)c1ccc([N+](=O)[O-])cc1 [ML175] | 101%
43 | CN(C)C(=N)NC(=N)N [Metformin] | 91.9%
44 | Cl.OC[C@H]1NC[C@H](O)[C@@H](O)[C@H]1O [Migalastat] | 109%
45 | OCCN1C[C@H](O)[C@@H](O)[C@H](O)[C@H]1CO [Miglitol] | 97.8%
46 | CCCCCCCCCCCCC/C=C/[C@@H](O)[C@H](CO)N(C)C [N,N-Dimethylsphingosine] | 97.4%
47 | CCCCCCCNC=O [N-Heptyl-Formamide] | 116%

Same assay, conditions: 10 nM; 72 h

Row | Compound | cell viability
48 | O=C(Oc1ccc([N+](=O)[O-])cc1)N1CCC(C(O)(c2ccc3c(c2)OCO3)c2ccc3c(c2)OCO3)CC1 [JZL184] | 110%
49 | O=C1N[C@@H]2[C@@H](O)[C@@H](O)[C@H](O)[C@@H](CO)N2C1=O [Kifunensine] | 102%
50 | CC(C)(CCCCCCCCCCC(C)(C)CC(=O)O)CC(=O)O [MEDICA 16] | 108%
51 | Cc1nnc(-c2ccc(N3CCC(Oc4ccccc4C(F)(F)F)CC3)nn2)s1 [MF-438] | 103%
52 | CC(C)c1ccc2c(c1)c(SC(C)(C)C)c(CC(C)(C)C(=O)O)n2Cc1ccc(Cl)cc1 [MK-886] | 97%
53 | O=C(CCl)N(CCCNC(=O)C(F)(F)F)c1ccc([N+](=O)[O-])cc1 [ML175] | 91.9%
54 | CN(C)C(=N)NC(=N)N [Metformin] | 102%
55 | Cl.OC[C@H]1NC[C@H](O)[C@@H](O)[C@H]1O [Migalastat] | 94.7%
56 | OCCN1C[C@H](O)[C@@H](O)[C@H](O)[C@H]1CO [Miglitol] | 98.5%
57 | CCCCCCCCCCCCC/C=C/[C@@H](O)[C@H](CO)N(C)C [N,N-Dimethylsphingosine] | 95.2%
58 | CCCCCCCNC=O [N-Heptyl-Formamide] | 108%

Same assay, conditions: 100 nM; 72 h

Row | Compound | cell viability
59 | O=C(Oc1ccc([N+](=O)[O-])cc1)N1CCC(C(O)(c2ccc3c(c2)OCO3)c2ccc3c(c2)OCO3)CC1 [JZL184] | 106%
60 | O=C1N[C@@H]2[C@@H](O)[C@@H](O)[C@H](O)[C@@H](CO)N2C1=O [Kifunensine] | 99.3%
61 | CC(C)(CCCCCCCCCCC(C)(C)CC(=O)O)CC(=O)O [MEDICA 16] | 103%
62 | Cc1nnc(-c2ccc(N3CCC(Oc4ccccc4C(F)(F)F)CC3)nn2)s1 [MF-438] | 32.4%
63 | CC(C)c1ccc2c(c1)c(SC(C)(C)C)c(CC(C)(C)C(=O)O)n2Cc1ccc(Cl)cc1 [MK-886] | 101%
64 | O=C(CCl)N(CCCNC(=O)C(F)(F)F)c1ccc([N+](=O)[O-])cc1 [ML175] | 99.6%
